Test results: US20200262813A1, “1,5,7-TRISUBSTITUTED ISOQUINOLINE DERIVATIVES, PREPARATION THEREOF, AND USE THEREOF IN MEDICINES” (SHANGHAI HAIYAN PHARMACEUTICAL TECHNOLOGY CO., LTD., priority 2016, published 2020)
Read-outs that look alike come from different tables or passages of the source.

Assays:
Pfeiffer cells = experiment: Cell proliferation test (cell counting kit-8, 6 days); format: cell-based; conditions: 6 days' growth
Protocol: Cells were harvested by centrifuge and densities were determined using a CounterStar cell counter. Appropriate number of cells were plated in a 96-well culture plate and incubated overnight. Compounds to be tested were 1:3 diluted for 8 gradient points and added into corresponding wells. After 6 days' growth, cell counting kit-8 (Dojindo) was used to detect cell viability and absorbance values were read on Tecan infinite pro.

[1] = molecular target: Recombinant PRC2 (EZH2-Y641F) (Homo sapiens, UniProt Q15910, Y641F); experiment: In vitro methyltransferase activity test (LANCE Ultra); conditions: LANCE Ultra detection, 3 hours reaction;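 further: compounds tested as an 8-point threefold dilution series, fluorescence read after 1 h detection step at room temperature, IC50 derived from a four-parameter curve fit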
Protocol: In Vitro Methyltransferase Activity Test
Recombinant PRC2 (EZH2-Y641F) was purchased from Active motif, S-adenosyl-methionine (SAM) and Poly-L-lysine (PLL) were purchased from Sigma-Aldrich, H3(1-50)K27mel polypeptide was purchased from Cisbio. LANCEUltra system (Perkinelmer) was used for detection. In the enzyme activity test, a compound to be tested was 1:3 diluted for 8 gradient points, added into a reaction plate, and then added 100 ng recombinant enzyme. And then a buffer [20 mM Tris pH8.5, 2 mM MgCl2, 0.01% Tween-20, 1 mM TCEP] containing 2.5 M SAM/250 nM H3(1-50)K27mel premixture was added to conduct an enzyme reaction at room tempreture. After reacted for 3 hours, a dection solution containing premixed PLL, detection antibody and Ulight was added, reacted for 1 h at RT, then fluorescence was read on Tecan infinite pro. IC50s were calculated by four-factor model fitting in a XLfit software.

[2] = EZH2 Y641F IC50, Recombinant PRC2 (EZH2-Y641F)
[3] = read-out: EZH2 Y641F IC50, Recombinant PRC2 (EZH2-Y641F)

Recombinant PRC2 (EZH2-Y641F), sequence (Q15910 whole entry Y641F): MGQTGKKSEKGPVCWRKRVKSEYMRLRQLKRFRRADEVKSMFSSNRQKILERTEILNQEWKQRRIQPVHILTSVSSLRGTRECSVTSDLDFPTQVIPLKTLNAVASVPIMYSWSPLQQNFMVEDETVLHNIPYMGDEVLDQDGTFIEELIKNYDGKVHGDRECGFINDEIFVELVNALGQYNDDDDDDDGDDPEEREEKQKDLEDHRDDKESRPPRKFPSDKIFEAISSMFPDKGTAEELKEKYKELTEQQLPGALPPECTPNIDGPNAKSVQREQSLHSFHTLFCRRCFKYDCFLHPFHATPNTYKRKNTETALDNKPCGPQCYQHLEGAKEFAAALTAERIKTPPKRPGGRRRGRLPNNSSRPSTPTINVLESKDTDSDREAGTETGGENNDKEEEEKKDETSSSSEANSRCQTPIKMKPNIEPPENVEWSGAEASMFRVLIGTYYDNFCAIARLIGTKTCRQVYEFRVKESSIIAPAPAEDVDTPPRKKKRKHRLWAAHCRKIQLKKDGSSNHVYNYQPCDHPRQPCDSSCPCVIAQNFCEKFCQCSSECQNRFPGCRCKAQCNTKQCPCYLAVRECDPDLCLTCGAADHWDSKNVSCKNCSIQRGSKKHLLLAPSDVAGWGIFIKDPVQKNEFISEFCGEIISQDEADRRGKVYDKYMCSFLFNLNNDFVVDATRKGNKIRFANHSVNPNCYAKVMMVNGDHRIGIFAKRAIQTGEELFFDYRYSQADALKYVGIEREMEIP
Recombinant PRC2 (EZH2-Y641F), sequence (O75530 whole entry partner): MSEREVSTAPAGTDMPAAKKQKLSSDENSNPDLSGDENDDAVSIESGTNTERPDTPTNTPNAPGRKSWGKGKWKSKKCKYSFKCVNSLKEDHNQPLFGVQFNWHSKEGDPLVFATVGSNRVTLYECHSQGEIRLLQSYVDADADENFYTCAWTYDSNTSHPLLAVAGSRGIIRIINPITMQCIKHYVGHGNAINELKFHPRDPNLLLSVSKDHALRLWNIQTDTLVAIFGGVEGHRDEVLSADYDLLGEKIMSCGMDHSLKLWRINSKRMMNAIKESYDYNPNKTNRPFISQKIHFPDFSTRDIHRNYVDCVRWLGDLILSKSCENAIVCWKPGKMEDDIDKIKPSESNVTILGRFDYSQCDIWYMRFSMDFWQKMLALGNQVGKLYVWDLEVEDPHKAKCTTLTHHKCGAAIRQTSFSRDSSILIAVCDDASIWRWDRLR
Recombinant PRC2 (EZH2-Y641F), sequence (Q15022 whole entry partner): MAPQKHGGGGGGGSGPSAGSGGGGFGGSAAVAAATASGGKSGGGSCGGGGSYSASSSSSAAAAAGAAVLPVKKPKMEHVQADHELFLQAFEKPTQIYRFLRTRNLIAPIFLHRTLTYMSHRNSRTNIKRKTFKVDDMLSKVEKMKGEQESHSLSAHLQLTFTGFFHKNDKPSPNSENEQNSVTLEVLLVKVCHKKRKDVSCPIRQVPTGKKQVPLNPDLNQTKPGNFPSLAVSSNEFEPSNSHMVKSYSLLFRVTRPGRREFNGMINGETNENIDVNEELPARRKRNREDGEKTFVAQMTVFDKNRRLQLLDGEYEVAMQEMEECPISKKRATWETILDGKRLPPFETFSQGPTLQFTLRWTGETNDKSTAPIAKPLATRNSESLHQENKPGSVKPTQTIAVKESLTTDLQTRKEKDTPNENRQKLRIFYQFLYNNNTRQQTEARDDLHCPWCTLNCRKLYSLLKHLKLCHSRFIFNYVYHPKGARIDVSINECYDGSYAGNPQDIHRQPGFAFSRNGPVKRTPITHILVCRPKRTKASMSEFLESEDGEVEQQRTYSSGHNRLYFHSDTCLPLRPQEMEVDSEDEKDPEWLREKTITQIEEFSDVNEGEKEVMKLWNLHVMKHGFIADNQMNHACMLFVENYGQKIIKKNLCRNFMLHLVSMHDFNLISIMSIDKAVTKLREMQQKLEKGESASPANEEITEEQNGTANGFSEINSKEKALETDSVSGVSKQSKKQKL
Recombinant PRC2 (EZH2-Y641F), sequence (Q09028 whole entry partner): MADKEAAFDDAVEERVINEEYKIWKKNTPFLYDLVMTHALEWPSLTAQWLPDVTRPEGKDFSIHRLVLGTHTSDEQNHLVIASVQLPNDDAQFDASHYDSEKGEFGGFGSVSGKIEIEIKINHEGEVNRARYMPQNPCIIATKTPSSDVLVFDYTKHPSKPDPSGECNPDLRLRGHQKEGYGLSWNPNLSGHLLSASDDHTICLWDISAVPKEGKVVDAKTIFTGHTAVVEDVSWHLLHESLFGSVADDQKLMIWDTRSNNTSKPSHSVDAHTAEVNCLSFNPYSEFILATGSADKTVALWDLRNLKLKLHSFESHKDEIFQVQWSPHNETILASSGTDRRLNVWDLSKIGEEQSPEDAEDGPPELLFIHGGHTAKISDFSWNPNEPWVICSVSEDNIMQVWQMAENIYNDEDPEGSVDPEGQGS
Recombinant PRC2 (EZH2-Y641F), sequence (Q6ZN18 whole entry partner): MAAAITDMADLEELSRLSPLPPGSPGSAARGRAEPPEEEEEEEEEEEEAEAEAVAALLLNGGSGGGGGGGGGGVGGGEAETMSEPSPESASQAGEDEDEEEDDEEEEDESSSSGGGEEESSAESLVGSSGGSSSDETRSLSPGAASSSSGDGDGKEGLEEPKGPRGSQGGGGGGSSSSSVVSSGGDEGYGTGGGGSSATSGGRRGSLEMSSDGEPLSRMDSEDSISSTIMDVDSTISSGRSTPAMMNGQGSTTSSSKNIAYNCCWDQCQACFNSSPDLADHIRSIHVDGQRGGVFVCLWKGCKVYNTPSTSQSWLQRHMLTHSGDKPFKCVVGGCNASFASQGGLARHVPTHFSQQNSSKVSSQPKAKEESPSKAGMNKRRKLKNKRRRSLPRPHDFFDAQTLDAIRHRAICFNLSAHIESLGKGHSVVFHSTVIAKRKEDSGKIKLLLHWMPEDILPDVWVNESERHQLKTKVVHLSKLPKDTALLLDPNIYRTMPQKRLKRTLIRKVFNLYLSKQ

SMILES | IC50 [1, 2] [µM] | IC50 [1, 3] [µM] | IC50 (Pfeiffer cells; Homo sapiens, Pfeiffer, 144 h) [µM] | IC50 (Pfeiffer cells) [µM]
CCN(c1cc(-c2ccc(C3CCN(C)CC3)nc2)cc2c(NCc3c(C)cc(C)[nH]c3=O)nccc12)[C@H]1CC[C@H](N(C)C)CC1 [Compound Z-17, 3-((5-(((1R,4R)-4-(dimethylamino)cyclohexyl) (ethyl)amino)-7-(6-(1-methylpiperidine-4-yl)pyridine-3-yl)-isoquinolinylamino)methyl)-4,6-dimethylpyridine-2(1H)-one] | 0.013 |  | 0.768 | 
CCN(c1cc(-c2ccc(CN3CCN(C)CC3)nc2)cc2c(NCc3c(C)cc(C)[nH]c3=O)nccc12)[C@H]1CC[C@@H](N(C)C)CC1 [Compound Z-58] |  |  |  | 0.359
CCN(c1cc(-c2cccnc2)cc2c(NCc3c(C)cc(C)[nH]c3=O)nccc12)[C@H]1CC[C@@H](N(C)C)CC1 [Compound Z-64] | 0.009 |  | 0.357 | 
CCN(c1cc(-c2cncnc2)cc2c(NCc3c(C)cc(C)[nH]c3=O)nccc12)C1CCC(N(C)C)CC1 (stereo not drawn) [Compound Z-65] | 0.052 |  | 0.972 | 
CCN(c1cc(-c2ccc(N3CCOCC3)nc2)cc2c(NCc3c(C)cc(C)[nH]c3=O)nccc12)C1CCC(O)CC1 (stereo not drawn) [Compound Z-70] |  |  |  | 0.516
CCN(c1cc(-c2ccc(N3CCN(C)CC3)nc2)cc2c(NCc3c(C)cc(C)[nH]c3=O)nccc12)C1CCN(C2CC2)CC1 [Compound Z-74] | 0.326 |  | 0.799 | 
CCN(c1cc(C2=CCN(C)CC2)cc2c(NCc3c(C)cc(C)[nH]c3=O)nccc12)C1CCC(O)CC1 (stereo not drawn) [Compound Z-91] | 0.075 |  | 0.291 | 
CCN(c1cc(-c2cnc(N3CCOCC3)nc2)cc2c(NCc3c(C)cc(C)[nH]c3=O)nccc12)C1CCN(C2CC2)CC1 [Compound Z-92] |  |  |  | 0.688
CCN(c1cc(-c2ccc(N3CCN(C)CC3)nc2)cc2c(NCc3c(C)cc(C)[nH]c3=O)nccc12)C1CCC(F)(F)CC1 [Compound Z-94] | 0.159 |  | 0.384 | 
CCN(CCN(C)C)c1cc(-c2ccc(N3CCN(C)CC3)nc2)cc2c(NCc3c(C)cc(C)[nH]c3=O)nccc12 [Compound Z-97] | 0.283 |  | 0.326 | 
CCN(c1cc(-c2ccc(CN3CCN(C(C)C)CC3)nc2)cc2c(NCc3c(C)cc(C)[nH]c3=O)nccc12)C1CCOCC1 [Compound Z-112] | 0.096 |  | 0.595 | 
CCN(c1cc(-c2ccc(CN3CCN(C)C(=O)C3)nc2)cc2c(NCc3c(C)cc(C)[nH]c3=O)nccc12)C1CCOCC1 [Compound Z-114] | 0.084 |  | 0.788 | 
CCN(c1cc(-c2cnc(CN3CCN(C)CC3)nc2)cc2c(NCc3c(C)cc(C)[nH]c3=O)nccc12)C1CCOCC1 [Compound Z-115] | 0.047 |  | 0.706 | 
CCN(c1cc(-c2cnc(CN3CCN(C)CC3)c(F)c2)cc2c(NCc3c(C)cc(C)[nH]c3=O)nccc12)C1CCOCC1 [Compound Z-116] | 0.041 |  | 0.525 | 
CCN(c1cc(-c2ccc(CN3CCN(C)CC3)nc2)cc2c(NCc3c(C)cc(C)[nH]c3=O)nccc12)C1CCOCC1 [Compound Z-118] | 0.085 |  | 0.973 | 
CCN(c1cc(-c2cncc(F)c2)cc2c(NCc3c(C)cc(C)[nH]c3=O)nccc12)C1CCN(C(C)C)CC1 [Compound Z-125] | 0.022 |  | 0.772 | 
CCN(c1cc(-c2ccccn2)cc2c(NCc3c(C)cc(C)[nH]c3=O)nccc12)C1CCN(C(C)C)CC1 [Compound Z-126] | 0.156 |  | 0.765 | 
CCN(c1cc(C#CCN2CCOCC2)cc2c(NCc3c(C)cc(C)[nH]c3=O)nccc12)C1CCC(N(C)C)CC1 (stereo not drawn) [Compound Z-177] | 0.031 |  | 0.444 | 
CCN(c1cc(Cl)cc2c(NCc3c(C)cc(C)[nH]c3=O)nccc12)C1CCN(S(C)(=O)=O)CC1 [Compound Z-229] | 0.429 |  |  | 
CCN(c1cc(C(C)C)cc2c(NCc3c(C)cc(C)[nH]c3=O)nccc12)C1CCNCC1 [Compound Z-235, 3-((5-(ethyl (piperidin-4-yl)amino)-7-isopropylisoquinolin-1-ylamino)methyl)-4,6-dimethyl-2(1H)-one] | 0.129 |  |  | 

Continued, in another order:

IC50 [1, 2] [µM] | IC50 [1, 3] [µM] | SMILES | IC50 (Pfeiffer cells; Homo sapiens, Pfeiffer, 144 h) [µM] | IC50 (Pfeiffer cells) [µM]
0.221 |  | CCN(c1cc(-c2ccc(CN3CCN(C)CC3)nc2)cc2c(NCc3c(C)cc(C)[nH]c3=O)nccc12)C1CCOCC1 [Compound Z-35] |  | 0.611
0.028 |  | CCN(c1cc(-c2ccc(CN3CCCCC3)cc2)cc2c(NCc3c(C)cc(C)[nH]c3=O)nccc12)C1CCC(N(C)C)CC1 (stereo not drawn) [Compound Z-37] | 0.991 | 
0.016 |  | CCN(c1cc(-c2ccc(N3CCOCC3)nc2)cc2c(NCc3c(C)cc(C)[nH]c3=O)nccc12)C1CCC(N(C)C)CC1 (stereo not drawn) [Compound Z-39] | 0.507 | 
0.038 |  | CCN(c1cc(-c2ccc(CN(C)C)cc2)cc2c(NCc3c(C)cc(C)[nH]c3=O)nccc12)C1CCC(N(C)C)CC1 (stereo not drawn) [Compound Z-45] | 0.599 | 
0.014 |  | CCN(c1cc(-c2cnc(N3CCOCC3)nc2)cc2c(NCc3c(C)cc(C)[nH]c3=O)nccc12)[C@H]1CC[C@H](N(C)C)CC1 [Compound Z-46] | 0.362 | 
0.019 |  | CCN(c1cc(-c2ccc(CN3CCN(C)CC3)cc2)cc2c(NCc3c(C)cc(C)[nH]c3=O)nccc12)[C@H]1CC[C@H](N(C)C)CC1 [Compound Z-54] | 0.614 | 
0.159 |  | CCN(c1cc(-c2ccc(N3CCOCC3)nc2)cc2c(NCc3c(C)cc(C)[nH]c3=O)nccc12)C1CCN(C(C)C)CC1 [Compound Z-66] | 0.766 | 
0.15 |  | CCN(c1cc(-c2ccncc2)cc2c(NCc3c(C)cc(C)[nH]c3=O)nccc12)[C@H]1CC[C@H](N(C)C)CC1 [Compound Z-73] | 0.593 | 
0.269 |  | CCN(c1cc(-c2cccnc2)cc2c(NCc3c(C)cc(C)[nH]c3=O)nccc12)C1CCC(O)CC1 (stereo not drawn) [Compound Z-85] | 0.521 | 
0.128 |  | CCN(c1cc(-c2ccc(N3CCN(C)CC3)nc2)cc2c(NCc3c(C)cc(C)[nH]c3=O)nccc12)C1CCC(O)CC1 (stereo not drawn) [Compound Z-86] | 0.483 | 
0.043 |  | CCN(c1cc(-c2cnc(N3CCN(C)CC3)nc2)cc2c(NCc3c(C)cc(C)[nH]c3=O)nccc12)C1CCC(O)CC1 (stereo not drawn) [Compound Z-89] | 0.401 | 
0.074 |  | CCN(c1cc(-c2ccc(C3CC3)nc2)cc2c(NCc3c(C)cc(C)[nH]c3=O)nccc12)C1CCC(N(C)C)CC1 (stereo not drawn) [Compound Z-93] | 0.279 | 
0.251 |  | CCN(c1cc(-c2cnc(N3CCOCC3)nc2)cc2c(NCc3c(C)cc(C)[nH]c3=O)nccc12)C1CCC(O)CC1 (stereo not drawn) [Compound Z-99] | 0.201 | 
0.197 |  | CCN(c1cc(-c2ccc(CN3CCN(C)CC3)nc2)cc2c(NCc3c(C)cc(C)[nH]c3=O)nccc12)C1CCC(F)(F)CC1 [Compound Z-105] | 0.988 | 
 | 0.283 | CCN(c1cc(-c2cnc(N3CCOCC3)nc2)cc2c(NCc3c(C)cc(C)[nH]c3=O)nccc12)[C@H]1CC[C@@H](O)CC1 [Compound Z-108] |  | 0.612
0.037 |  | Cc1cc(C)c(CNc2nccc3c(N(C)C4CCC(N(C)C)CC4)cc(-c4ccc(N5CCN(C)CC5)nc4)cc23)c(=O)[nH]1 (stereo not drawn) [Compound Z-111] | 0.478 | 
0.153 |  | CCN(c1cc(-c2ccc(CN3CCOCC3)nc2)cc2c(NCc3c(C)cc(C)[nH]c3=O)nccc12)C1CCOCC1 [Compound Z-113] | 0.713 | 
0.474 |  | CCN(c1cc(-c2cnc(CN3CCOCC3)nc2)cc2c(NCc3c(C)cc(C)[nH]c3=O)nccc12)C1CCOCC1 [Compound Z-121] | 0.646 | 
0.439 |  | CCN(c1cc(-c2cnc(CN3CCOCC3)c(F)c2)cc2c(NCc3c(C)cc(C)[nH]c3=O)nccc12)C1CCOCC1 [Compound Z-122] | 0.833 | 
 | 0.107 | CCN(c1cc(Cl)cc2c(NCc3c(C)cc(C)[nH]c3=O)nccc12)C1CCC(N(C)C)CC1 (stereo not drawn) [Compound Z-132] |  | 0.301
0.049 |  | CCN(c1cc(Cl)cc2c(NCc3c(C)cc(C)[nH]c3=O)nccc12)[C@H]1CC[C@@H](N(C)C)CC1 [Compound Z-136] | 0.465 | 
 | 0.015 | CCN(c1cc(C#CCN2CCOCC2)cc2c(NCc3c(C)cc(C)[nH]c3=O)nccc12)[C@H]1CC[C@@H](N(C)C)CC1 [Compound Z-179] |  | 0.54
0.013 |  | CCN(c1cc(C#CCN2CCN(C)CC2)cc2c(NCc3c(C)cc(C)[nH]c3=O)nccc12)C1CCC(N(C)C)CC1 (stereo not drawn) [Compound Z-180] | 0.38 | 
0.068 |  | CCN(c1cc(-c2ccc(N3CCN(C)CC3)nc2)cc2c(NCc3c(C)cc(C)[nH]c3=O)nccc12)C1CCC(NC(C)=O)CC1 (stereo not drawn) [Compound Z-225, N-(4-((1-((4,6-dimethyl-2-oxo-1,2-dihydropyridin-3-yl)methylamino)-7-(6-(4-methylpiperazin-1-yl)pyridin-3-yl)isoquinolin-5-yl) (ethyl)amino)cyclohexyl) acetamide] |  | 
0.064 |  | CCN(c1cc(C(N)=O)cc2c(NCc3c(C)cc(C)[nH]c3=O)nccc12)[C@H]1CC[C@H](N(C)C)CC1 [Compound Z-227, 1-((4,6-dimethyl-2-oxo-1,2-dihydropyridin-3-yl)methylamino)-5-(((1R,4R)-4-(dimethylamino)cyclohexyl) (ethyl)amino) isoquinoline-7-carboxamide] |  | 
0.174 |  | CCN(c1c(F)c(-c2ccc(N3CCN(C)CC3)nc2)cc2c(NCc3c(C)cc(C)nc3O)nccc12)[C@H]1CC[C@@H](N(C)C)CC1 [Compound Z-231, 3-((5-(((1S,4S)-4-(dimethylamino)cyclohexyl) (ethyl)amino)-6-fluoro-7-(6-(4-methylpiperazin-1-yl)pyridin-3-yl)isoquinolin-1-ylamino)methyl)-4,6-dimethyl-2(1H)-one] |  | 
